Key:
[1] = Activation of PPARgamma L465A mutant-mediated transcriptional activity assessed as Gal4 reporter activity
[2] = Activation of PPARgamma L469A mutant-mediated transcriptional activity assessed as Gal4 reporter activity
[3] = Activation of PPARgamma I472A mutant-mediated transcriptional activity assessed as Gal4 reporter activity
[4] = Activation of PPARgamma Q286G mutant-mediated transcriptional activity assessed as Gal4 reporter activity

EC50 [1]: > 10 µM
EC50 [2]: > 10 µM
EC50 [3]: > 10 µM
EC50 [4]: 0.207 µM
SMILES: CN(CCOc1ccc(CC2SC(=O)NC2=O)cc1)c1ccccn1 (centres undefined) [ROSIGLITAZONE]

From ChEMBL document CHEMBL1156456, “Insights into the mechanism of partial agonism: crystal structures of the peroxisome proliferator-activated receptor gamma ligand-binding domain in the complex with two enantiomeric ligands” (J Biol Chem, 2007)
